Test results from patent US10683269B2 (MISSION THERAPEUTICS LIMITED, priority 2016, dated 2020).
pIC50: −log10 of the molar value.

Biological target: T1, USP7 (Homo sapiens, UniProt Q93009)
T1 construct: The USP7 construct was PCR amplified and cloned into a pFLAG-CMV-6a vector (Sigma-Aldrich) with an N-terminal FLAG tag; made in house; host or cells: HEK293T
Assay: USP7 biochemical IC50 assay (fluorescence polarisation, TAMRA labelled peptide linked to ubiquitin via an iso-peptide bond)
Conditions: 30 min pre-incubation of enzyme and compound, read after 2 hr incubation at room temperature, read-out: IC50 range
Method: In Vitro USP7 Inhibition Assay
Expression and Purification of USP7
The USP7 construct was PCR amplified and cloned into a pFLAG-CMV-6a vector (Sigma-Aldrich) with an N-terminal FLAG tag. HEK293T cells were transfected with FLAG-USP7 using TransIT-LT1 transfection reagent (Mirus) according to the manufacturer's instructions. Cells were harvested 40 hours after transfection. […] The resin was washed two times with low salt buffer plus protease inhibitors (complete mini, Roche) and phosphatase inhibitors (PhosSTOP mini, Roche) and one time with high salt buffer (20 mM Tris, pH 7.5, 500 mM NaCl, 0.5 mM EDTA, 5 mM beta-mercaptoethanol, protease inhibitors (complete mini, Roche) and phosphatase inhibitors (PhosSTOP mini, Roche). To elute the bound USP7, elution buffer (10 mM Tris, pH 7.5, 150 mM NaCl, 0.5 mM EDTA, 10% glycerol, 0.5% NP40, 5 mM beta-mercaptoethanol, 0.15 mg/ml 3×FLAG peptide (Sigma-Aldrich)) was added to the resin and incubated at 4° C. for 2.5 hours rotating. The resin was centrifuged at 4000 rpm for 30 seconds, and the supernatant containing purified FLAG-USP7 was removed and stored at −80° C.
USP7 Biochemical IC50 Assay
A typical 8-point dilution series would be 100, 30, 10, 3, 1, 0.3, 0.1, 0.03 μM final. […] Either 1 μl of 50% DMSO or diluted compound was added to the plate. USP7 was diluted in reaction buffer (20 mM Tris, pH 7.5, 100 mM NaCl, 0.05% Tween 20, 0.5 mg/ml BSA, 5 mM—beta mercaptoethanol) to the equivalent of 0.0025 μl/well and 10 μl of diluted USP7 was added to the compound. Enzyme and compound were incubated for 30 min at room temp. Reactions were initiated by the addition of 50 nM of TAMRA labelled peptide linked to ubiquitin via an iso-peptide bond as fluorescence polarisation substrate. Reactions were read immediately after addition of substrate and following a 2 hr incubation at room temperature. Readings were performed on a Pherastar Plus (BMG Labtech). λ Excitation 540 nm; λ Emission 590 nm.

T1 sequence (Q93009 whole entry): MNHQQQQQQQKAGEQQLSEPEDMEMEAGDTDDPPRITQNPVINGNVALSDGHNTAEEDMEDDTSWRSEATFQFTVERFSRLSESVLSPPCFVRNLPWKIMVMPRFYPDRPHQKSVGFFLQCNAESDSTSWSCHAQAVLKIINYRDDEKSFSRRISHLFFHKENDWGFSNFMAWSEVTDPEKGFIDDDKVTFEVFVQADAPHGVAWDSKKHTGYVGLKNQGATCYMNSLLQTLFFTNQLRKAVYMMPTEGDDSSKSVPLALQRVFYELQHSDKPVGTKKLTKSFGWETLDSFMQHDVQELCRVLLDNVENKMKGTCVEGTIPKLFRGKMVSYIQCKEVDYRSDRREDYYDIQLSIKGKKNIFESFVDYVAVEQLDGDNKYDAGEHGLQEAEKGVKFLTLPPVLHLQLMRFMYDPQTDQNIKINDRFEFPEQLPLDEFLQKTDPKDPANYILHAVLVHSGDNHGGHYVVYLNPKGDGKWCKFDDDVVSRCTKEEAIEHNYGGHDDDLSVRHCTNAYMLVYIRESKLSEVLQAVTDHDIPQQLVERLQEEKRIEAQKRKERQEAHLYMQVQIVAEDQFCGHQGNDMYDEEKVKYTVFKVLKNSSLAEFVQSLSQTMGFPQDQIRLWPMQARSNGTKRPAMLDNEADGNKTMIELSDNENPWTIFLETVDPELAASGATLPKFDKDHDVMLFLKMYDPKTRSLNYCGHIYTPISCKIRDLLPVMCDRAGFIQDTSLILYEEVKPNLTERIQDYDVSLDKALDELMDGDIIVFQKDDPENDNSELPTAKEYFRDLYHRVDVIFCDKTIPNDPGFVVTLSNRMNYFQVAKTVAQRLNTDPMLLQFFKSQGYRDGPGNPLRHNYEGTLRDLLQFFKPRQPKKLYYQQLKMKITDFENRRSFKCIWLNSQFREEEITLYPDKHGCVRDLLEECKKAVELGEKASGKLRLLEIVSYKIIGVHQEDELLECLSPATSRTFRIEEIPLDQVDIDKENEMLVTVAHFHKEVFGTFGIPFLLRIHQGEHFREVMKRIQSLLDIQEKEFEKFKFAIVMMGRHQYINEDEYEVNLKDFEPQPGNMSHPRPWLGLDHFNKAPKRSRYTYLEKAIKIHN

SMILES | pIC50
CN1CCCC(C(=O)Nc2cc3c(c(-c4ccccc4C(N)=O)c2)CN(C#N)C3)C1 (stereo not drawn) [Example 56, N-(7-(2-carbamoylphenyl)-2-cyanoisoindolin-5-yl)-1-methylpiperidine-3-carboxamide] | 5.00 to 6.00
CC(=O)Nc1cc2c(c(-c3ccccc3)c1)CN(C#N)C2 [Example 57] | 5.00 to 6.00
CC(=O)N(C)c1cc2c(c(-c3ccccc3)c1)CN(C#N)C2 [Example 58, N-(2-cyano-7-phenylisoindolin-5-yl)-N-methylacetamide] | 5.00 to 6.00
CN1CCCC(C(=O)N(C)c2cc3c(c(-c4ccccc4)c2)CN(C#N)C3)C1 (stereo not drawn) [Example 59, N-(2-cyano-7-phenylisoindolin-5-yl)-N,1-dimethylpiperidine-3-carboxamide] | 5.00 to 6.00
CN1CCN(C(=O)Nc2cc3c(c(-c4ccccc4)c2)CN(C#N)C3)CC1 [Example 60, N-(2-cyano-7-phenylisoindolin-5-yl)-4-methylpiperazine-1-carboxamide] | > 6.00
CS(=O)(=O)Nc1cc2c(c(-c3ccccc3)c1)CN(C#N)C2 [Example 61, N-(2-cyano-7-phenylisoindolin-5-yl)methanesulfonamide] | 5.00 to 6.00
N#CN1Cc2cc(NC(=O)C3CCCNC3)cc(-c3ccccc3)c2C1 (stereo not drawn) [Example 62, N-(2-cyano-7-phenylisoindolin-5-yl)piperidine-3-carboxamide] | > 6.00
N#CN1Cc2cc(NC(=O)C3CCNCC3)cc(-c3ccccc3)c2C1 [Example 63, N-(2-cyano-7-phenylisoindolin-5-yl)piperidine-4-carboxamide] | 5.00 to 6.00
CN1CCCC(CNc2cc3c(c(-c4ccccc4)c2)CN(C#N)C3)C1 (stereo not drawn) [Example 64, 6-(((1-methylpiperidin-3-yl)methyl)amino)-4-phenylisoindoline-2-carbonitrile] | > 6.00
N#Cc1ccc(-c2cccc3c2CN(C#N)C3)c(Cl)c1 [Example 65, 4-(2-chloro-4-cyanophenyl)isoindoline-2-carbonitrile] | 5.00 to 6.00
Cc1cc(C#N)ccc1-c1cccc2c1CN(C#N)C2 [Example 66, 4-(4-cyano-2-methylphenyl)isoindoline-2-carbonitrile] | 5.00 to 6.00
Cc1cc(C#N)cc(C)c1-c1cccc2c1CN(C#N)C2 [Example 67, 4-(4-cyano-2,6-dimethylphenyl)isoindoline-2-carbonitrile] | 5.00 to 6.00
N#CN1Cc2cccc(-c3cccc4c3C(=O)NC4)c2C1 [Example 68, 3-oxo-[4,4′-biisoindoline]-2′-carbonitrile] | 5.00 to 6.00
N#CN1Cc2cccc(-c3cccc4c3C(=O)NCC4)c2C1 [Example 69, 4-(1-oxo-1,2,3,4-tetrahydroisoquinolin-8-yl)isoindoline-2-carbonitrile] | 5.00 to 6.00
C[C@@H](O)c1ccccc1-c1cccc2c1CN(C#N)C2 [Example 70, (R)-4-(2-(1-hydroxyethyl)phenyl)isoindoline-2-carbonitrile] | 5.00 to 6.00
C[C@H](O)c1ccccc1-c1cccc2c1CN(C#N)C2 [Example 71, (S)-4-(2-(1-hydroxyethyl)phenyl)isoindoline-2-carbonitrile] | 5.00 to 6.00
N#Cc1ccc(-c2cccc3c2CN(C#N)C3)c(C#N)c1 [Example 72, 4-(2-cyanoisoindolin-4-yl)isophthalonitrile] | > 6.00
N#CN1Cc2cccc(-c3cccc(C(=O)NCc4ccccc4)c3)c2C1 [Example 73, N-benzyl-3-(2-cyanoisoindolin-4-yl)benzamide] | 5.00 to 6.00
CC(NC(=O)c1cccc(-c2cccc3c2CN(C#N)C3)c1)c1ccccc1 (stereo not drawn) [Example 74, 3-(2-cyanoisoindolin-4-yl)-N-(1-phenylethyl)benzamide] | 5.00 to 6.00
N#CN1Cc2cccc(-c3cccc(C(=O)Nc4ccccc4)c3)c2C1 [Example 75, 3-(2-cyanoisoindolin-4-yl)-N-phenylbenzamide] | 5.00 to 6.00
C[C@@H](NC(=O)c1cccc(-c2cccc3c2CN(C#N)C3)c1)c1ccccc1 [Example 76, (R)-3-(2-cyanoisoindolin-4-yl)-N-(1-phenylethyl)benzamide] | 5.00 to 6.00
